Reference: ChEMBL document CHEMBL1201862, “PubChem BioAssay data set” (2004)
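These data come from cells grown in 96-well plates and exposed to compound for 48 hours at five concentrations. At the GI50, growth is halved.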 Calls of active or inactive are those of the source. Cut-off read from the data, not from the text of the source: active = GI50 up to about 1.1 µM and inactive = higher.

Assays:
Assay in all cases: inhibition of tumour cell growth, NCI panel, 48 h
MOLT-4 = tested on: MOLT-4
SW-620 = tested on: SW-620
SNB-75 = tested on: SNB-75
HCT-116 = tested on: HCT-116
OVCAR-4 = tested on: OVCAR-4
NCI-H460 = tested on: NCI-H460
SK-OV-3 = tested on: SK-OV-3
OVCAR-3 = tested on: OVCAR-3
OVCAR-5 = tested on: OVCAR-5
U-251 = tested on: U-251
Malme-3M = tested on: Malme-3M
DU-145 = tested on: DU-145
NCI-H522 = tested on: NCI-H522
SF-268 = tested on: SF-268
NCI-H23 = tested on: NCI-H23
M14 = tested on: M14
Hs-578T = tested on: Hs-578T
SN12C = tested on: SN12C
HCC 2998 = tested on: HCC 2998
MDA-MB-231 = tested on: MDA-MB-231

Measured: GI50

CC1(C)C(OC(=O)c2ccccc2)C[C@]23CCC[C@](C)(C[C@@H](O)C12)C3 (stereo partly drawn)
inactive: MOLT-4 10.5 µM | SW-620 13.9 µM | SNB-75 18.9 µM | HCT-116 13.9 µM | OVCAR-4 23.1 µM | NCI-H460 16.2 µM | SK-OV-3 85.7 µM | OVCAR-3 30.6 µM | OVCAR-5 15.3 µM | U-251 > 10 µM | Malme-3M 19.2 µM | DU-145 21.2 µM | NCI-H522 15.5 µM | SF-268 24.1 µM | NCI-H23 16.9 µM | M14 19.9 µM | Hs-578T 19 µM | SN12C 18.4 µM

O=C(c1ccc(Cl)cc1Cl)N(C(=O)N1CCC(c2ccccc2)CC1)c1ccccc1
inactive: MOLT-4 17.8 µM | SW-620 > 100 µM | SNB-75 > 100 µM | HCT-116 49.4 µM | NCI-H460 > 100 µM | SK-OV-3 > 100 µM | OVCAR-3 > 100 µM | OVCAR-5 > 100 µM | U-251 > 100 µM | DU-145 > 100 µM | HCC 2998 > 100 µM | NCI-H23 > 100 µM | M14 > 100 µM | SN12C > 100 µM

O=C1/C(=N/c2ccc(Nc3ccccc3)cc2)Oc2ccccc21
inactive: MOLT-4 2.13 µM | SW-620 2.36 µM | SNB-75 2.15 µM | HCT-116 1.67 µM | OVCAR-4 2.33 µM | NCI-H460 5.31 µM | SK-OV-3 5.98 µM | OVCAR-3 1.97 µM | OVCAR-5 2.54 µM | U-251 1.69 µM | Malme-3M 2.99 µM | DU-145 8.47 µM | HCC 2998 8.26 µM | NCI-H522 1.83 µM | SF-268 2.88 µM | NCI-H23 2.04 µM | M14 2.33 µM | MDA-MB-231 2.27 µM | SN12C 2.02 µM

CCc1cccc(C(C)CC)c1NC(=O)C(=O)Cc1nc2ccccc2o1 (stereo not drawn)
inactive: MOLT-4 > 34.5 µM | SW-620 > 50 µM | SNB-75 > 50 µM | HCT-116 > 50 µM | OVCAR-4 > 50 µM | NCI-H460 > 50 µM | SK-OV-3 > 50 µM | OVCAR-3 > 50 µM | OVCAR-5 > 43.8 µM | U-251 > 50 µM | Malme-3M > 50 µM | HCC 2998 > 50 µM | NCI-H522 > 50 µM | SF-268 > 50 µM | NCI-H23 > 50 µM | M14 > 50 µM | SN12C > 50 µM
